According to US20090186929A1, “Method and agent for inducing apoptosis/cell death in leukemia cells” (U.S. DEPARTMENT OF VETERANS AFFAIRS, priority 2003, published 2009):

Tests used:
[1] = normals, trials for septic shock and migraine; cited from earlier work
CLL cells [2] = test: Cytotoxicity of NOS inhibitors for CLL cells in vitro (MTS assay); settings: cytotoxicity for CLL cells in vitro
Source text: We worked to optimize the culture of CLL cells (Reference 86). […] These were all tested with and without albumin, fetal bovine serum, human serum, glutamine, insulin, transferrin, selenium, and mercaptoethanol.
Toxicity could be detected by disappearance of cells from the culture (reduction in overall cell number), uptake of trypan blue, propidium iodide uptake (flow cytometry), MTS (4,5-dimethylthiazol-2-yl)-5-(3-carboxymethoxyphenyl)-2-(4-sulfophenyl)-2H-tetrazolium, inner salt) assay (cellular respiration), and several parameters of apoptosis [annexin V assay, DNA content […], and TUNEL assay].

CLL cells [3] = test: CLL cell apoptosis (TUNEL assay); assay type: cell-based, human; settings: CLL cells in vitro
Protocol: Culture of cells with IL-4 or IFN-γ (but not TNF-α, IL-2, IL-6, IL-8, G-CSF, nerve growth factor, or IFN-α) increased NO production. By quantitative RT-PCR, IL-4 increased NOS2 mRNA (FIG. 8). Also, 5 of 5 patients' CLL cells had increases in NOS2 protein (immunoblot) after in vitro treatment with IL-4. Apoptosis (TUNEL assay) was induced by NMMA treatment of the cells, and incubating cells with IL-4 or IFN-y reduced apoptosis. […] Since IL-4 and IFN-gamma induce NOS2 and modulate CD38 expression in CLL cells in vitro, we sought to determine if CLL patients had elevated levels of these cytokines and if the levels related to CD38 expression by the leukemia cells (Reference 87).

[4] = biological target: T1, purified recombinant human NOS2 oxygenase domain (Homo sapiens, UniProt P35228); test: NOS inhibitor binding (Kd) to NOS2
T1 construct: purified recombinant human NOS2 oxygenase domain
Protocol: […] The cLogP value for each NOS inhibitor was determined using the CLOGP computer program (BioByte, Claremont, Calif.). […] Linear regression was used to examine the correlation between the IC50, Kd and cLogP values and ED50 values.
We determined the dissociation constant for NOS inhibitor binding (Kd) to purified recombinant and NOS2.

[5] = biological target: T2, purified recombinant rat NOS1 oxygenase domain (Rattus norvegicus, UniProt P29476); test: NOS inhibitor binding (Kd) to NOS1
T2 construct: purified recombinant rat NOS1 oxygenase domain

CLL cells [6] = test: Cytotoxicity of NOS inhibitors for CLL cells in vitro (PI exclusion assay); assay type: cell-based; settings: Homo sapiens, CLL cell, read-out: Mean ED50 ± S.E.M. (CLL cell cytotoxicity)
Source text: Toxicity could be detected by disappearance of cells from the culture (reduction in overall cell number), uptake of trypan blue, propidium iodide uptake (flow cytometry), MTS (4,5-dimethylthiazol-2-yl)-5-(3-carboxymethoxyphenyl)-2-(4-sulfophenyl)-2H-tetrazolium, inner salt) assay (cellular respiration), and several parameters of apoptosis [annexin V assay, DNA content (<in), and TUNEL assay].

T1 sequence (P35228 1-504 limits assumed): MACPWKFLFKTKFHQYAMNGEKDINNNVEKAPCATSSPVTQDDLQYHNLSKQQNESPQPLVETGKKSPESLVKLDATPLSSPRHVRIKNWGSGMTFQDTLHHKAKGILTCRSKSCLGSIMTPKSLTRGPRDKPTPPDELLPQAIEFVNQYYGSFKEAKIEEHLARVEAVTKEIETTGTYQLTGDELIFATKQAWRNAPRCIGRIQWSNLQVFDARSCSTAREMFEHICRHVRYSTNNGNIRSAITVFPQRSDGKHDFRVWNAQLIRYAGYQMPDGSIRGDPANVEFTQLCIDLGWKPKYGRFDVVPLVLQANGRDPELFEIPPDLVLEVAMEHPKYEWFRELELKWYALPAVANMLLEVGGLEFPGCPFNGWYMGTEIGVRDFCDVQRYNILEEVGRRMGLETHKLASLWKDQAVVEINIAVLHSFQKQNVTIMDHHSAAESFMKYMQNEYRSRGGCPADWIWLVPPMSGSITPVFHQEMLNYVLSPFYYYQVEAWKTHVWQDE
T2 sequence (P29476 1-720 limits assumed): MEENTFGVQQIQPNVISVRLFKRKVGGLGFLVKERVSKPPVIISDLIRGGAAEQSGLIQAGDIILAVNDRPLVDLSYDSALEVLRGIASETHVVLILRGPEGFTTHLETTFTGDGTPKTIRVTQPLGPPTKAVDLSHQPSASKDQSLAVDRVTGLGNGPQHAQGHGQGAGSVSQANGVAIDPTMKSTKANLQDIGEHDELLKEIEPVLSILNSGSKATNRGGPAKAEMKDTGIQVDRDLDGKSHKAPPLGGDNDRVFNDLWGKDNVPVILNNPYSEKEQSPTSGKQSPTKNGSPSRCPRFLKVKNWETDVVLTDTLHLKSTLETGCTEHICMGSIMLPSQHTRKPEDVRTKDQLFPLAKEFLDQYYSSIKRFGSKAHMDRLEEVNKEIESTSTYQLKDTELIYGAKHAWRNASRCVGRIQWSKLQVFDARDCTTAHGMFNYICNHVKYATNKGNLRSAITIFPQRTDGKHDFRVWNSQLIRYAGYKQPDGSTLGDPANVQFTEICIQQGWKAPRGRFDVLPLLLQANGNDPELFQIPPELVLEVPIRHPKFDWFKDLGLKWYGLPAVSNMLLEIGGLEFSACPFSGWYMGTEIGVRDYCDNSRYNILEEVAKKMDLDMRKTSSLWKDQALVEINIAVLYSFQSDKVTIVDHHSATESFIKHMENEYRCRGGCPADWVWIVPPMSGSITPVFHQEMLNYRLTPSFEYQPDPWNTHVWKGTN

Row | Kd [4] [µM] | Kd [5] [µM] | SMILES | Effects on cardiovascular, liver, or hematopoietic function [1] | ED50 ranking, FIG. 10 (CLL cells [2]) | Apoptosis (TUNEL assay) (CLL cells [3]) | EC50 (CLL cells [6]) [µM]
1 | – | – | CC(=O)O.CNC(=N)NCCC[C@H](N)C(=O)O [L-NMMA, N^G-Monomethyl-L-arginine monoacetate] | no major effects | very high ED50 | induced | –
2 | 0.5 | 0.1 | C=CCC(=N)NCCC[C@H](N)C(=O)O [Vinyl-L-NIO, N^5-(1-Imino-3-butenyl)-L-ornithine] | – | – | – | 1190 ± 456
